Read-outs that look alike come from different tables or passages of the source.
Assays:
[1] = test system: RT extracted from HIV-1 C Plasma Sa147 K103N, E138Q, Y318F, M184V; test: Drug resistance indicator assay, remaining RT activity; format: biochemical
Procedure: (§1) Isolation of HIV is performed in a separation plate, a 96 deep-well microplate (well volume 2 ml). The Viral Load assay is started by addition of 40 μl sample additive e.g 5,5′-dithiobis-(2-nitrobenzoic acid) to each well (see FIG. 2). Thereafter the patient plasmas and control samples are added. Sample additive is mixed with the plasma prior to isolation of HIV for inactivation of certain enzymes present in the plasma. After 20 minutes incubation, a slurry containing 1 μm magnetic polymeric beads, is added to the wells. The positively charged beads are used to capture the HIV particles. At low pH (e.g. 5.5) and appropriate salt concentration the negatively charged HIV particles bind to the beads while most of the other components present in plasma will not bind, e.g. the proteins (antibodies) and anti-retroviral drugs (ARVs). After an additional five minutes incubation, the microwell plate is transported to a magnetic plate. When exposed to the magnetic field from the magnetic plate, the beads will be trapped to the walls of the wells. The plasma can then be removed by aspiration using a pipette. The separation plate is then transported back to the shaker, away from the magnetic plate.
(§2) The wash procedure (see FIG. 3) starts by adding a first wash buffer, the Bead Wash Buffer, and the entire separation plate will be shaken during three minutes to resuspend the beads. After that, the separation plate is moved to the magnetic plate where the beads will be exposed to the magnetic field and trapped to the walls of the wells. Next, the wash buffer is aspirated. The separation plate is then transported back to the shaker, away from the magnetic plate. In the current example, this wash procedure is repeated three times with the Bead Wash Buffer (referred to as “Wash solution 1” in FIG. 3) and one time with the second wash buffer, the so called Bead Reconditioning Buffer (referred to as “Wash solution 2” in FIG. 3).
(§3) The reverse transcriptase (RT) is now to be extracted from the viral particles, which is illustrated in FIG. 4. The HIV particle is composed of a protein core surrounded by a lipid bilayer envelope that will break if it is exposed to certain detergents. Once the lipid bilayer envelope is dissolved, the protein core falls apart and the RT inside is released. When the last wash step is finalized, lysis buffer containing e. g. the detergent Synperonic A11 is added to the wells, in FIG. 4 referred to as “lysis buffer”. The virus envelope breaks and the reverse transcriptase, RT, is released. With the magnetic beads still bound to the walls of the wells, the lysate containing the released RT is collected by aspiration and used in the subsequent RT reaction step.

[2] = test system: RT extracted from HIV-1 C Plasma Sa72 wild type; test: as above; format: biochemical
Procedure: as §1, §2, §3

[3] = biological target: T1, SIV Recombinant RT SIVsmH4 (Simian immunodeficiency virus, UniProt P12502); test: as above; format: biochemical; conditions: for remaining activity at 9 µM: EFV 9.0 μM
T1 construct: The recombinantly expressed and purified SIV RT was derived from the molecular clone pSIVsm/H4; made in house; host or cells: E. coli BL21 (DE3), vector pSRT.ET 11c
Procedure: The recombinantly expressed and purified SIV RT was derived from the molecular clone pSIVsm/H4. An expression vector pSRT.ET 11c was constructed and expression of SIV-RT in E. coli strain BL21 (DE3) in ordinary LB medium was carried out. The enzyme was purified in three chromatographic steps on a Heparin Sepharose CL-6B column, a Sepharose FF column and a Phenyl Sepharose CL-4B column.
(§4) The RT extracts recovered from this process and the other RT samples were analyzed for remaining activity according to above described drug resistance indicator assay.

[4] = test system: FIV RT, Cell culture virus M2 CladB; test: as above; format: biochemical
Procedure: as §4

[5] = test system: 69SS + 5M Recombinant RT HXB2 M41L,T69S-SS, L210W, R211K, L214F, T215Y; test: as above; conditions: EFV 9.0 μM
Procedure: (§5) Drug reaction solution: A buffer identical to above mentioned RT Reaction solution with a defined concentration of an antiviral drug added.
(§6) Each lysate is split into two aliquots, one whereof is added to a well containing drug at a predetermined concentration, and one whereof is added to a well without added drug. Apart from the lysates, said HIV drug susceptibility reference samples are also included in the assay.
(§7) The virus susceptibility to treatment with the drug can be determined from the relation between the enzyme activities in the presence and in absence of the drug. This can be expressed as percent remaining RT activity, i.e. the quota between signal in presence of drug and signal in absence of drug times 100.

[6] = test system: 69SG + 5M Recombinant RT HXB2 M41L,T69S-SG, L210W, R211K, L214F, T215Y; test: as above; conditions: EFV 9.0 μM
Procedure: as §5, §6, §7

[7] = test system: HIV-2 RT, Cell culture virus CRF01_AB; test: as above; conditions: EFV 9.0 μM; HIV-2 CRF01_AB
Procedure: as §5, §6, §7

[8] = test system: JSRV RT, Cell culture virus UK strain; test: as above; conditions: EFV 9.0 μM
Procedure: as §5, §6, §7

[9] = biological target: T2, MMTV Recombinant RT BR6 strain (Mouse mammary tumor virus, UniProt P03365); test: as above
T2 sequence (P03365 861-1436 limits assumed): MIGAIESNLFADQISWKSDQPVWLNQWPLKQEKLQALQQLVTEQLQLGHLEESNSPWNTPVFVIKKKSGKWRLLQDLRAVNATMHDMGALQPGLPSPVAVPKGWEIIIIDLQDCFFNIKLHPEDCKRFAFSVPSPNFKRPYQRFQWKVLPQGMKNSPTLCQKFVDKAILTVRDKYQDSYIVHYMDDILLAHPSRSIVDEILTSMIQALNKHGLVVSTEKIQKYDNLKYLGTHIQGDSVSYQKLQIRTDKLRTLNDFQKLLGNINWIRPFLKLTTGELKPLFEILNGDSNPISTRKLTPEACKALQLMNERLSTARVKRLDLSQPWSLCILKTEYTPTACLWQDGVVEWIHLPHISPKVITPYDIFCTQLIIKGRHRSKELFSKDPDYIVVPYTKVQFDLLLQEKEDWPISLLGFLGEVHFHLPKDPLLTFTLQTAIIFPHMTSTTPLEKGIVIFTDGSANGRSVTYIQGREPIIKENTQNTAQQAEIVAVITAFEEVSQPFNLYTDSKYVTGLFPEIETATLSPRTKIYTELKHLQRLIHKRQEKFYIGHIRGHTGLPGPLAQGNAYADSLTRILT
Procedure: as §5, §6, §7

[10] = test system: BLV RT, Cell culture virus FLK-BLV cells; test: as above; conditions: EFV 9.0 μM
Procedure: (This cell line is chronically infected by BLV).
as §5, §6, §7

[11] = test system: HTLV-1 RT, Cell culture virus MT-2 Cells; test: as above; conditions: EFV 9.0 μM
Procedure: as §5
(§8) Each lysate is split into two aliquots, one whereof is added to a well containing drug at a predetermined concentration, and one whereof is added to a well without added drug.
as §7

[12] = biological target: HTLV-2 RT, Cell culture virus (Human T-cell leukemia virus 2, UniProt P03363); test: as above
Procedure: as §5, §8, §7

[13] = test system: PERV RT, Cell culture virus PERV-PK15; test: as above; conditions: EFV 9.0 μM, 6 mM Mn2+
Procedure: Virus culture supernatant was cleared from cell debris by centrifugation, aliquoted and stored at −70° C. until use
as §5
All buffers used for analysis of γ-retroviruses RTs were supplemented with 6 mM Mn2+, but were otherwise identical to the buffers described above.
as §6, §7

[14] = test system: Mammalian γ -polymerase, mithochondria, Beef Heart; test: Drug resistance indicator assay, remaining polymerase activity; conditions: EFV 9.0 μM
Procedure: as §5, §6, §7

[15] = biological target: T3, HIV-1 B Recombinant RT BH10 wild type (Human immunodeficiency virus type 1 group M subtype B, UniProt P03366); test: biochemical; conditions: read-out: Remaining activity (% of actvity in absence of drug)
T3 construct: His-tag (C); made in house; host or cells: E. coli BL21 (DE3); plasmid purchased from Genescript
Procedure: as §4

[16] = biological target: HIV-1 B Recombinant RT HXB2 wild type (Human immunodeficiency virus type 1 group M subtype B, UniProt P04585); test: biochemical; conditions: read-out: Remaining activity (% of actvity in absence of drug)
Procedure: as §4

T1 sequence (P12502 598-1156 limits assumed): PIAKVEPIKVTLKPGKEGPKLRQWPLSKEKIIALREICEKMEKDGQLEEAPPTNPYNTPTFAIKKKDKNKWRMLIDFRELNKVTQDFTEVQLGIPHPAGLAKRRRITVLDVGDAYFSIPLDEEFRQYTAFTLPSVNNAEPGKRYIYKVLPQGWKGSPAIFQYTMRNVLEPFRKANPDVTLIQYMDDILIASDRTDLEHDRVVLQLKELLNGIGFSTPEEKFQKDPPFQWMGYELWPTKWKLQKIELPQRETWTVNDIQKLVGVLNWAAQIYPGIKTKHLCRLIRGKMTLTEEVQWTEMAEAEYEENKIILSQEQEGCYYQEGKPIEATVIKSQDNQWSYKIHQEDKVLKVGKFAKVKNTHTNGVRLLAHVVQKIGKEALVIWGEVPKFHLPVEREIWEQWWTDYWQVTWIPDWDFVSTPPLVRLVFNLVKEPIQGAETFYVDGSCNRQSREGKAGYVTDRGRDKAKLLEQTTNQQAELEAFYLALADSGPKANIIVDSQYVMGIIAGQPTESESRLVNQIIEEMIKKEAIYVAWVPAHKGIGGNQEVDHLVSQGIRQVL
Chain of HTLV-2 RT, Cell culture virus (P03363 580-1166): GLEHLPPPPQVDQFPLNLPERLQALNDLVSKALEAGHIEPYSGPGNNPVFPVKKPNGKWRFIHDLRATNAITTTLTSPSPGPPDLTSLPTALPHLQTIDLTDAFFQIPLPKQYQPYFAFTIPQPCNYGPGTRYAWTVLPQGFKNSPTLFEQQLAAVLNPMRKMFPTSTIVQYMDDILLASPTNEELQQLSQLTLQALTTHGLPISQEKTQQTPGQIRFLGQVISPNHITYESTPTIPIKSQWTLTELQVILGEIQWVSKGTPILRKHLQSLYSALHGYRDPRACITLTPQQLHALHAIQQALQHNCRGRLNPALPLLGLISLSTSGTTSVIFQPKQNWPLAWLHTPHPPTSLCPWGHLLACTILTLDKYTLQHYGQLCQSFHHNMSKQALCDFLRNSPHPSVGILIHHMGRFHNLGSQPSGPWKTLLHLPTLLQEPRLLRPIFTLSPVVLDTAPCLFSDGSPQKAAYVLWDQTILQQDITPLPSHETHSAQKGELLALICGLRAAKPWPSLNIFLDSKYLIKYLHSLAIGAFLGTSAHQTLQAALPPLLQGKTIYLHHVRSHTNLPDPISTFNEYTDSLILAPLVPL

Compound: O=C1Nc2ccc(Cl)cc2[C@@](C#CC2CC2)(C(F)(F)F)O1 [EFV, (−)6-chloro-4-cyclopropylethynyl-4-trifluoromethyl-I,4-dihydro-2H-3,1-benzoxazin-2-one]
- Remaining activity (% of actvity in absence of drug) ([1]; EFV 9.0 μM): 87.8%
- Remaining activity (% of actvity in absence of drug) ([2]; EFV 9.0 μM): 8.3%
- remaining activity at 9 µM ([3]; SIVsmH4, read-out: Remaining activity (% of actvity in absence of drug)): 99.9%
- remaining activity at 9 µM ([3]; SIVsmH4, read-out: Remaining activity (%)): 103%
- Remaining activity (% of actvity in absence of drug) ([4]; EFV 9.0 μM): 93.6%
- Remaining activity (%) ([4]; EFV 9.0 μM): 93.6%
- Remaining activity (%) [5]: 3.5%
- Remaining activity (%) [6]: 3.9%
- Remaining activity (%) [7]: 100.2%
- Remaining activity (%) [8]: 102.7%
- remaining activity at 9 µM [9]: 102%
- Remaining activity (%) [10]: 101.7%
- Remaining activity (%) [11]: 93.8%
- remaining activity at 9 µM [12]: 91.7%
- Remaining activity (%) [13]: 98.0%
- Remaining activity (%) [14]: 94.8%

Compound: Cc1cc(C#N)cc(C)c1Oc1nc(Nc2ccc(C#N)cc2)nc(N)c1Br [ETV, 4-({6-amino-5-bromo-2-[(4-cyanophenyl)amino]pyrimidin-4-yl}oxy)-3,5-dimethylbenzonitrile]
- remaining activity at 21.8 µM [15]: 3.5%
- remaining activity at 21.8 µM [16]: 2.8%
- Remaining activity (% of actvity in absence of drug) ([1]; ETV 21.8 μM): 68.0%
- Remaining activity (% of actvity in absence of drug) ([2]; ETV 21.8 μM): 6.5%
- remaining activity at 21.8 µM ([3]; ETV 21.8 μM, SIVsmH4, read-out: Remaining activity (% of actvity in absence of drug)): 98.5%
- Remaining activity (% of actvity in absence of drug) ([4]; ETV 21.8 μM): 90.6%

Compound: Cc1ccnc2c1NC(=O)c1cccnc1N2C1CC1 [NPV, 11-cyclopropyl-5,11-dihydro-4-methyl-6H-dipyrido[3,2-b:2′,3′-f][1,4]diazepin-6-one]
- remaining activity at 81 µM [15]: 3.4%
- remaining activity at 81 µM [16]: 8.1%
- Remaining activity (% of actvity in absence of drug) ([1]; NPV 81.0 μM): 94.9%
- Remaining activity (% of actvity in absence of drug) ([2]; NPV 81.0 μM): 16.1%
- remaining activity at 81 µM ([3]; read-out: Remaining activity (% of actvity in absence of drug)): 99.5%
- Remaining activity (% of actvity in absence of drug) ([4]; NPV 81.0 μM): 87.7%

Compound: Cc1cc(/C=C/C#N)cc(C)c1Nc1ccnc(Nc2ccc(C#N)cc2)n1 [RPV, 4-{[4-({4-[(1E)-2-cyanoeth-1-en-1-yl]-2,6-dimethylphenyl}amino)pyrimidin-2-yl]amino}benzonitrile]
- remaining activity at 12 µM ([15]; RPV 12.0 μM, BH10 wild type): 2.5%
- remaining activity at 12 µM ([16]; RPV 12.0 μM, HXB2 wild type): 2.4%
- Remaining activity (% of actvity in absence of drug) ([1]; RPV 12.0 μM): 80.8%
- Remaining activity (% of actvity in absence of drug) ([2]; RPV 12.0 μM): 9.3%
- remaining activity at 12 µM ([3]; RPV 12.0 μM, SIVsmH4, read-out: Remaining activity (% of actvity in absence of drug)): 108%
- Remaining activity (% of actvity in absence of drug) ([4]; RPV 12.0 μM): 86.1%

— patent publication US20210139947A1, “METHOD FOR ASSESSING SUSCEPTIBILITY OF A VIRUS TO TREATMENT BY MEASURING ENZYME ACTIVITY AND A SYSTEM THEREFORE” (priority 2017, published 2021)
